According to patent publication US12178825B2, “Method and compositions for forming a copper-containing complex and uses thereof” (COLD SPRING HARBOR LABORATORY, priority 2017, dated 2024):

Assays:
[1] = test system: PTP1B1-367, PTP1B1-346 and PTP1B1-321; assay: Phosphatase assay with C-terminal truncation mutants; format: biochemical
Text: All common reagents were obtained from Thermo Fisher Scientific (Waltham, MA) or Sigma-Aldrich (St. Louis, MO). Difluoro-4-methylumbelliferyl phosphate (DiFMUP) was obtained from Invitrogen (cat #D22065). Solid black 384-well plates (cat #3573) for phosphatase assays were from Corning Incorporated (Corning, NY).

TNBC cells = assay: Immunoblot of copper-induced signaling; format: cell-based; details: co-administration
Text: Equal quantities of lysates were isolated from indicated cell lines and then resolved by SDS-PAGE and immunoblotted with one of the following primary antibodies: mouse anti-MEK1/2, rabbit anti-p-PAK1, rabbit anti-PAK1, rabbit anti-ERK1/2, rabbit anti-phospho(Ser 217/221)-MEK1/2, rabbit anti-phospho(Thr 202/Tyr 204)-ERK1/2, rabbit anti-phospho (Ser 338)-c-RAF, rabbit anti-RAF, rabbit anti-phospho (Ser 112)-BAD and rabbit anti-BAD (Cell Signaling Technology), mouse anti-β-actin (Sigma), followed by detection with one of the following horseradish peroxidase-conjugated secondary antibodies: goat anti-rabbit IgG, goat anti-mouse IgG (Invitrogen), mouse anti-rabbit light-chain-specific IgG (Jackson ImmunoResearch Laboratories) using enhanced chemiluminescence (ECL; GE Healthcare) or SuperSignal West Femto Chemiluminescent substrate (Pierce) detection reagents.

For COC(=O)CCC(C)C1CCC2C3C(O)CC4CC(NCCCCNCc5ccccn5)CCC4(C)C3CCC12C (stereo not drawn) [DPM-1001], the “inhibitory potency for truncation mutants relative to PTP1B1-405 and PTP1B1-394” value [1] was “lower”, the “copper-induced increase of pS338-RAF1 and pS112-BAD” value (TNBC cells; 5-10 μM copper in culture media) was “reduced or blocked” and the “copper-induced increase of phospho-PAK1” value (TNBC cells; copper added to culture media) was “blocked”.
